Test results taken from publication PMC6753678, “Fueling Open Innovation for Malaria Transmission-Blocking Drugs: Hundreds of Molecules Targeting Early Parasite Mosquito Stages” (Frontiers in Microbiology, 2019).
pIC50: −log10 of the molar value. Read-outs that look alike come from different tables or passages of the source.

Tests used:
[1] = test system: P. berghei ookinete development; details: for % inhibition, Replicate A / % inhibition, Replicate B: primary screen at 1 μM
[2] = test system: HepG2 cells; experiment: HepG2 cytotoxicity assay; details: for Pb ODA (this manuscript) HepG2 cytoxicity: HepG2 cytotoxicity listed with the Pb ODA data set (this manuscript); for pIC50: read-out: HepG2 cytotoxicity assay IC50, dose response confirmation
In short: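 Here viability after a 48 h compound incubation (37°C, humidified 5% CO2) is measured by fluorescence and expressed as percent inhibition, with doxorubicin at 50 μM and DMSO as the bounding controls.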

[3] = test system: 3D7-strain P. falciparum asexual parasites; experiment: P. falciparum asexual growth inhibition assay (Pf GIA); assay type: cell-based, Plasmodium falciparum; details: dose response confirmation; read-out: Pf asexual growth inhibition assays IC50
In short: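 Read-out was lactate dehydrogenase activity measured by absorbance at 650 nm after freezing and thawing, against 50 μM chloroquine and DMSO controls. Before that, asexual 3D7 cultures (0.25% parasitemia, 2% hematocrit) had 72 h dose-response compound exposure at 37°C in 5% CO2/5% O2/90% N2; three independent replicates averaged.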

[4] = read-out: Pb ODA (this manuscript) IC50, P. berghei ookinete development assay, this manuscript
[5] = read-out: Pb Ookinete development assay IC50, dose response confirmation
[6] = read-out: Pb ODA IC50, this manuscript
[7] = unified HepG2 value across the three screens
[8] = HepG2 values of the three screens unified

Row | SMILES | Is compound selective in assay? Pb ODA active? [1] | % inhibition, Replicate A [1] [%] | % inhibition, Replicate B [1] [%] | pIC50 [1, 4] | pIC50 [1, 5] | Pb ODA (this manuscript) HepG2 cytoxicity [2] [µM] | pIC50 [2] | pIC50 [3] | Is compound selective in assay? Pb ODA active? ([1]; 1: YES, 0: NO) | pIC50 [1, 6] | Unified cytotox [2, 7] [µM] | HepG2 cytoxicity (Pb ODA, this manuscript) [2] [µM] | Unified cytotox [2, 8] [µM]
1 | Cc1[nH]c(C)c([N+](=O)[O-])c(=O)c1-c1ccc(Oc2ccc(OC(F)(F)F)cc2)cc1 [TCMDC-135555] | 1 (key: 1: YES; 0: NO) | 67.14 | 51.32 | 5.55 | 5.55 | 100.00 | 4.00 | 6.75 |  |  |  |  | 
2 | Cc1nc(C)c(-c2ccc(Oc3cc(Cl)cc(Cl)c3)cc2)c(O)c1Cl [TCMDC-137391] | 0 (key: 1: YES; 0: NO) | 91.21 | 90.22 | 6.51 | 6.51 | 0.0017 | 8.77 | 8.96 |  |  |  |  | 
3 | Cc1ccc2[nH]c(C)c(Br)c(=O)c2c1 [TCMDC-124347] |  | 68.86 | 49.90 |  | 5.61 |  | 4.00 | 5.42 | 1 (1: YES) | 5.61 | 100.00 |  | 
4 | Br.CCCc1cc(C)ccc1OCCCON1C(N)=NC(N)=NC1(C)C [TCMDC-131320] |  | 73.15 | 59.20 |  | 5.29 |  | 8.77 | > 9.70 | 0 (0: NO) | 5.29 |  | 0.0017 | 0.0017
5 | CN1Cc2cc(NC(=O)/C=C/c3ccccc3Cl)ccc2C(C)(C)C1.Cl [TCMDC-139315] |  | 114.62 | 130.13 |  | 6.25 |  | 4.69 | 6.17 | 1 (1: YES) | 6.25 | 20.42 |  | 
6 | CC[C@@]1(O)C(=O)OCc2c1cc1n(c2=O)Cc2c-1nc1cc3c(cc1c2CN1CCN(C)CC1)OCCO3.Cl [TCMDC-131875] |  | 61.11 | 69.44 |  | 5.63 |  | 5.90 | 6.69 | 0 (0: NO) | 5.63 | 1.26 |  | 
7 | COc1cc(-c2nc(C(C)(C)CN)[nH]c2-c2ccncc2)ccc1Br.Cl [TCMDC-140674] | 1 (key: 1: YES; 0: NO) | 75.42 | 38.48 | 5.88 | 5.88 | 39.81 | 4.40 | 5.51 |  |  |  |  | 
8 | CCOC(=O)NC1=NC(=N)N(OCCCOc2cc(Cl)c(Cl)cc2Cl)C(C)(C)N1 [TCMDC-131741] | 0 (key: 1: YES; 0: NO) | 60.63 | 47.57 | 5.29 | 5.29 | 0.001 | 9.00 | > 9.70 |  |  |  |  | 
9 | Cc1noc(C)c1-c1cccc(CNCc2ccc(-c3cccc(-c4nc5cc(F)ccc5[nH]4)c3)cc2)c1.O=C(O)C(F)(F)F [TCMDC-133060] |  | 12.93 | 53.61 |  | 4.86 |  | 4.81 | 5.89 | 0 (0: NO) | 4.86 | 15.49 |  | 
10 | CC(C)Cn1ccc2c3c(N)nc(N)nc3ccc21 [TCMDC-137997] |  | 52.84 | 64.75 |  | 5.85 |  | 6.60 | 7.72 | 0 (0: NO) | 5.85 |  | 0.25 | 0.25
11 | COc1ccc2nc3cc(Cl)ccc3c(NCCCN3CCNCC3)c2c1.Cl [TCMDC-137580] | 0 (key: 1: YES; 0: NO) | 53.44 | 35.84 | 5.77 | 5.78 | 14.79 | 4.83 | 7.25 |  |  |  |  | 
12 | CC1CN(Cc2cccc(C#N)c2)CCN1c1ccc(NC(=O)c2cccs2)cc1.O=C(O)C(F)(F)F (stereo not shown) [TCMDC-134969] | 0 (key: 1: YES; 0: NO) | 50.06 | 40.18 |  | 5.79 | 3.02 | 5.52 | 7.11 |  |  |  |  | 
13 | C=CCOc1ccc(-c2c(C)[nH]c(C)c(Br)c2=O)cc1 [TCMDC-135042] | 1 (key: 1: YES; 0: NO) | 92.87 | 107.55 |  | 6.15 | 7.08 | 5.15 | 6.65 |  |  |  |  | 
14 | Nc1nc(N)c2c(ccc3c2ccn3CCCCO)n1 [TCMDC-137959] |  | 70.70 | 40.44 |  | 5.51 |  | 7.12 | 7.21 | 0 (0: NO) | 5.51 |  | 0.0759 | 0.0759
15 | Cc1ccc(C2=NNC3(S2)C(=O)N(C)c2ccccc23)cc1 (stereo not shown) [TCMDC-123863] |  | 93.73 | 58.53 |  | 5.61 |  | 4.24 | 5.49 | 1 (1: YES) | 5.61 | 56.89 |  | 
16 | Nc1nc(N)c2c(ccc3c2ccn3Cc2ccccc2)n1 [TCMDC-141977] |  | 47.17 | 65.82 |  | 6.54 |  | 6.82 | 9.00 | 0 (0: NO) | 6.54 |  | 0.15 | 0.15
17 | Cc1nc(C)c(-c2ccc(Oc3ccc(Cl)c(Cl)c3)cc2)c(O)c1Cl [TCMDC-137396] | 1 (key: 1: YES; 0: NO) | 89.72 | 133.12 | 6.92 | 6.91 | 16.98 | 4.77 | 7.02 |  |  |  |  | 
18 | Cc1[nH]c(C)c(-c2ccc(OCc3ccc(F)cc3)cc2)c(=O)c1Br [TCMDC-138928] | 1 (key: 1: YES; 0: NO) | 93.24 | 106.54 | 6.22 | 6.23 | 100.00 | 4.00 | 6.97 |  |  |  |  | 
19 | Br.CC(CCON1C(N)=NC(N)=NC1(C)C)c1ccc(Cl)cc1 (stereo not shown) [TCMDC-131721] | 0 (key: 1: YES; 0: NO) | 71.36 | 33.21 | 5.02 | 5.02 | 0.001 | 9.00 | > 9.70 |  |  |  |  | 
